Biological target: T1, hGIP-R (Homo sapiens, UniProt P48546)
T1 construct: expressed in transfected cells; host or cells: HEK-293 clonal cell lines
T1 sequence (P48546 22-466): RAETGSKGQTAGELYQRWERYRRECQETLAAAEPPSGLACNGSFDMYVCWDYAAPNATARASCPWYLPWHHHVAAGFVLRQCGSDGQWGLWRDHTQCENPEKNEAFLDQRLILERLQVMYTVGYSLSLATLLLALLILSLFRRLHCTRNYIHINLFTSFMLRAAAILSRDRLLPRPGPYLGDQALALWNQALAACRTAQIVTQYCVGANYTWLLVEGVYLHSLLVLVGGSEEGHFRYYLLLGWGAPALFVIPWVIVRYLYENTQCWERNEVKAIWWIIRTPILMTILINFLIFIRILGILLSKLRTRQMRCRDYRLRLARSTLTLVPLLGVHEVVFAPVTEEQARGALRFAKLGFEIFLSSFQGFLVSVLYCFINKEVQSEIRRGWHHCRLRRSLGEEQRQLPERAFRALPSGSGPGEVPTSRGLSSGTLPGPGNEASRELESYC
Assay: Functional hGIP-R Assay (cAMP formation, HTRF)
Type: cell-based
Conditions: for Emax: cAMP efficacy, percent of maximal response to GIP(1-42)OH, 37° C., 0.1% bovine casein, arithmetic mean ± SEM; for EC50: cAMP potency, HEK-293 cells expressing hGIP-R, incubated at 37° C. in the presence of 0.1% bovine casein, geometric mean, read-out: Human GIP-R EC50, nM (SEM, n)
Experimental: Functional activity was determined using CAMP formation in HEK-293 clonal cell lines expressing hGIP-R. hGIP-R receptor expressing cells were treated with compound (20 point concentration-response curve in DMSO, 2-fold Labcyte Echo direct dilution, 384 well plate Corning Cat #3570) in DMEM (Gibco Cat #31053) supplemented with 1× GlutaMAX™ (Gibco Cat #35050), 0.1% bovine casein (Sigma C4765-10ML), 250 μM IBMX (3-Isobutyl-1-methylxanthine, Acros Cat #228420010) and 20 mM HEPES (Gibco Cat #15630) in a 20 μL assay volume (final DMSO concentration was 1%). After a 30 min incubation at 37° C., the resulting increase in intracellular cAMP was quantitatively determined using the Revvity CAMP Dynamic 2 HTRF Assay Kit (62AM4PEJ). Briefly, cAMP levels within the cell were detected by adding the cAMP-d2 conjugate in cell lysis buffer (10 μL) followed by the antibody anti-cAMP-Eu^3+-Cryptate, also in cell lysis buffer (10 μL). The resulting competitive assay was incubated for at least 60 min at RT, then detected using a BMG Labtech PHERAstar FSX instrument with excitation at 320 nm and emission at 665 nm and 620 nm. PHERAstar units (emission at 665 nm/620 nm*10,000) are inversely proportional to the amount of cAMP present and were converted to nM cAMP per well using a CAMP standard curve. The amount of cAMP generated (nM) in each well was converted to a percent of the maximal response observed with human GIP (1-42) OH. A relative EC50 value and percent top (Emax) were derived by non-linear regression analysis using the percent maximal response vs. the concentration of compound added, fitted to a four-parameter logistic equation.

| Compound | Emax [%] | EC50 [nM] |
| --- | --- | --- |
| Cn1cc2cc(-c3ccc([C@H]4C[C@@]45CCN([C@H](Cc4cnn(C(F)F)c4)C(=O)NC(C)(C)Cn4nc(C(F)(F)F)cc4-c4cc(F)c6nccn6c4)C5=O)cc3)cnc2n1 [Example 131, (R)-3-(1-(Difluoromethyl)-1H-pyrazol-4-yl)-N-(1-(5-(8-fluoroimidazo[1,2-a]pyridin-6-yl)-3-(trifluoromethyl)-1H-pyrazol-1-yl)-2-methylpropan-2-yl)-2-((1R,3R)-1-(4-(2-methyl-2H-pyrazolo[3,4-b]pyridin-5-yl)phenyl)-4-oxo-5-azaspiro[2.4]heptan-5-yl)propanamide] | 57.9 ± 4.24 | 17.7 |
| Cc1cn2cc(-c3ccc([C@H]4C[C@@]45CCN([C@H](Cc4cnn(C(F)F)c4)C(=O)NC(C)(C)Cn4nc(C(F)(F)F)cc4-c4ccc(=O)[nH]n4)C5=O)c(F)c3)cnc2n1 [Example 149, (R)-3-(1-(Difluoromethyl)-1H-pyrazol-4-yl)-2-((1S,3R)-1-(2-fluoro-4-(2-methylimidazo[1,2-a]pyrimidin-6-yl)phenyl)-4-oxo-5-azaspiro[2.4]heptan-5-yl)-N-(2-methyl-1-(5-(6-oxo-1,6-dihydropyridazin-3-yl)-3-(trifluoromethyl)-1H-pyrazol-1-yl)propan-2-yl)propanamide] | 73.2 ± 2.43 | 5.57 |
| [2H]C([2H])([2H])n1cc(C[C@H](C(=O)NC(C)(C)Cn2nc(C(F)(F)F)cc2-c2ccc(C(C)(C)O)nc2)N2CC[C@@]3(C[C@@H]3c3ccc(-c4cnc5nc(C6CC6)cn5c4)nc3C)C2=O)cn1 [Example 185, (R)-2-((1R,3R)-1-(6-(2-cyclopropylimidazo[1,2-a]pyrimidin-6-yl)-2-methylpyridin-3-yl)-4-oxo-5-azaspiro[2.4]heptan-5-yl)-N-(1-(5-(6-(2-hydroxypropan-2-yl)pyridin-3-yl)-3-(trifluoromethyl)-1H-pyrazol-1-yl)-2-methylpropan-2-yl)-3-(1-(methyl-d3)-1H-pyrazol-4-yl)propanamide] | 115 ± 5.3 | 0.402 |
| Cn1cc2cc(-c3ccc([C@H]4C[C@@]45CCN([C@H](Cc4cnn(C(F)F)c4)C(=O)NC(C)(C)Cn4nc(C(F)(F)F)cc4-c4cccn(CC#N)c4=O)C5=O)cc3)cnc2n1 [Example 123, (R)-N-(1-(5-(1-(Cyanomethyl)-2-oxo-1,2-dihydropyridin-3-yl)-3-(trifluoromethyl)-1H-pyrazol-1-yl)-2-methylpropan-2-yl)-3-(1-(difluoromethyl)-1H-pyrazol-4-yl)-2-((1R,3R)-1-(4-(2-methyl-2H-pyrazolo[3,4-b]pyridin-5-yl)phenyl)-4-oxo-5-azaspiro[2.4]heptan-5-yl)propanamide] | 95.7 ± 6.9 | 18.7 |
| CC(C)(Cn1cc(C(F)(F)F)cn1)NC(=O)[C@@H](Cc1cnc2ncccn12)NC(=O)[C@H]1C[C@@H]1c1ccc(NC(=O)C2CC(F)(F)C2)cc1 [Example 46, 3,3-Difluoro-N-(4-((1S,2S)-2-(((R)-3-(imidazo[1,2-a]pyrimidin-3-yl)-1-((2-methyl-1-(4-(trifluoromethyl)-1H-pyrazol-1-yl)propan-2-yl)amino)-1-oxopropan-2-yl)carbamoyl)cyclopropyl)phenyl) cyclobutane-1-carboxamide] | 66.4 ± 2.06 | 77.9 |
| Cc1ncc(-c2cc(C(F)(F)F)nn2CC(C)(C)NC(=O)[C@@H](Cc2cnn(C)c2)NC(=O)[C@H]2C[C@@H]2c2ccc(-c3cnc4nn(C)cc4c3)cc2)[nH]1 [Example 15, (1S,2S)-N-((R)-1-((2-Methyl-1-(5-(2-methyl-1H-imidazol-5-yl)-3-(trifluoromethyl)-1H-pyrazol-1-yl)propan-2-yl)amino)-3-(1-methyl-1H-pyrazol-4-yl)-1-oxopropan-2-yl)-2-(4-(2-methyl-2H-pyrazolo[3,4-b]pyridin-5-yl)phenyl) cyclopropane-1-carboxamide] | 117 ± 6.6 | 24.6 |
| CN1CCC(n2cc(C(F)(F)F)nc2CC(C)(C)NC(=O)[C@@H](Cc2cnn(C(F)F)c2)N2CC[C@@]3(C[C@@H]3c3ccc(-c4cnc5nc(C6CC6)cn5c4)cc3Cl)C2=O)C1=O (single isomer, unassigned) [Example 146] | 120 ± 5.11 | 0.234 |
| [2H]C([2H])([2H])n1cc(C[C@H](C(=O)NC(C)(C)Cn2nc(C(F)(F)F)cc2-c2cnc(C(C)(C)O)nc2)N2CC[C@@]3(C[C@@H]3c3ccc(-c4cnc5nn(C6CC6)cc5c4)nc3C)C2=O)cn1 [Example 191, (R)-2-((1R,3R)-1-(6-(2-cyclopropyl-2H-pyrazolo[3,4-b]pyridin-5-yl)-2-methylpyridin-3-yl)-4-oxo-5-azaspiro[2.4]heptan-5-yl)-N-(1-(5-(2-(2-hydroxypropan-2-yl)pyrimidin-5-yl)-3-(trifluoromethyl)-1H-pyrazol-1-yl)-2-methylpropan-2-yl)-3-(1-(methyl-d3)-1H-pyrazol-4-yl)propanamide] | 78.5 ± 0.865 | 2.89 |
| CN(C(=O)[C@H]1C[C@@H]1c1ccc(-c2cnc3nn(C(F)(F)F)cc3c2)cc1)[C@H](Cc1cnn(C)c1)C(=O)NC(C)(C)Cn1nc(C(F)(F)F)cc1-c1ccc(=O)n(C)c1 [Example 89, (1S,2S)-N-Methyl-N-((R)-1-((2-methyl-1-(5-(1-methyl-6-oxo-1,6-dihydropyridin-3-yl)-3-(trifluoromethyl)-1H-pyrazol-1-yl)propan-2-yl)amino)-3-(1-methyl-1H-pyrazol-4-yl)-1-oxopropan-2-yl)-2-(4-(2-(trifluoromethyl)-2H-pyrazolo[3,4-b]pyridin-5-yl)phenyl)cyclopropane-1-carboxamide] | 32.3 | 152 |
| Cn1cc2cc(-c3ccc(C4CC45CCN([C@H](Cc4cnn(C(F)F)c4)C(=O)NC(C)(C)Cn4nc(C(F)(F)F)cc4-c4cc(F)c(=O)n(C)c4)C5=O)c(C(F)F)c3)cnc2n1 (single isomer, unassigned; isomer 2) [Example 109] | 73.3 ± 2.59 | 0.701 |
| Cn1cc(C[C@@H](NC(=O)[C@H]2C[C@@H]2c2ccc(-c3cnc4nn(C)cc4c3)cc2)C(=O)NC(C)(C)Cn2nc(C(F)(F)F)cc2C2CC2)cn1 [Example 21, (1S,2S)-N-((R)-1-((1-(5-Cyclopropyl-3-(trifluoromethyl)-1H-pyrazol-1-yl)-2-methylpropan-2-yl)amino)-3-(1-methyl-1H-pyrazol-4-yl)-1-oxopropan-2-yl)-2-(4-(2-methyl-2H-pyrazolo [3,4-b]pyridin-5-yl)phenyl) cyclopropane-1-carboxamide] | 102 ± 1.71 | 63.4 |
| Cn1cc2cc(-c3ccc([C@H]4C[C@@]45CCN([C@H](Cc4cnn(C(F)F)c4)C(=O)NC(C)(C)Cn4nc(C(F)(F)F)cc4-c4cn(C)c(=O)c6ccccc46)C5=O)cc3)cnc2n1 [Example 129, (R)-3-(1-(Difluoromethyl)-1H-pyrazol-4-yl)-N-(2-methyl-1-(5-(2-methyl-1-oxo-1,2-dihydroisoquinolin-4-yl)-3-(trifluoromethyl)-1H-pyrazol-1-yl)propan-2-yl)-2-((1R,3R)-1-(4-(2-methyl-2H-pyrazolo[3,4-b]pyridin-5-yl)phenyl)-4-oxo-5-azaspiro[2.4]heptan-5-yl)propanamide] | 78.6 ± 6.28 | 138 |
| Cn1cc2cc(-c3ccc([C@H]4C[C@@H]4C(=O)N[C@H](Cc4cnn(C(F)F)c4)C(=O)NC(C)(C)Cn4nc(C(F)(F)F)cc4-c4cn[nH]n4)cc3)cnc2n1 [Example 43, (1S,2S)-N-((R)-1-((1-(5-(2H-1,2,3-Triazol-4-yl)-3-(trifluoromethyl)-1H-pyrazol-1-yl)-2-methylpropan-2-yl)amino)-3-(1-(difluoromethyl)-1H-pyrazol-4-yl)-1-oxopropan-2-yl)-2-(4-(2-methyl-2H-pyrazolo[3,4-b]pyridin-5-yl)phenyl)cyclopropane-1-carboxamide] | 116 ± 4.26 | 61.1 |

Reference: patent publication US20260108546A1 (ELI LILLY AND COMPANY, priority 2024, published 2026)
